From patent US12077503B2, “Substituted cyclic amides and their use as herbicides” (FMC CORPORATION, priority 2015, dated 2024)
Where two headings read alike, the source gives them in different places.

Legend:
Format in all cases: in vivo
[1] = tested on: ragweed (common ragweed, Ambrosia elatior); assay: Test A postemergence; conditions: Ambrosia artemisiifolia, post-emergence, 240 h, postemergence; for pest or weed control at 125 g/ha: 125 g ai/ha
How it was run: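 Preemergence directed soil spray on seeded pots, or postemergence application to plants 2–10 cm, one- to two-leaf. Solvent mixture non-phytotoxic, with surfactant. Scored ~10 d later, visually, 0–100 vs untreated.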

rice (Oryra sativa) = assay: Test B flooded paddy test; conditions: Oryza sativa, Flood, 250 g ai/ha; scale of 0 to 100 where 0 is no effect and 100 is complete control; read-out: Rice plant response rating
How it was run: (§1)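 Flooding to 3 cm over soil accompanied treatment, which consisted of adding compound to the standing water around 2-leaf plants; depth was then maintained. Visual assessment versus controls followed at 13 to 15 d (scale 0–100, 0 meaning no effect).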

[2] = tested on: sedge, umbrella (small-flower umbrella sedge, Cyperus difformis); assay: Test B flooded paddy test; conditions: Cyperus difformis, Flood, 250 g ai/ha; scale of 0 to 100 where 0 is no effect and 100 is complete control; read-out: Sedge, Umbrella plant response rating
How it was run: as §1

[3] = tested on: ducksalad (Heteranthera limosa); assay: Test B flooded paddy test; conditions: Heteranthera limosa, Flood, 250 g ai/ha; scale of 0 to 100 where 0 is no effect and 100 is complete control; read-out: Ducksalad plant response rating
How it was run: as §1

[4] = tested on: barnyardgrass (Echinochloa crus-galli); assay: Test B flooded paddy test; conditions: Echinochloa crus-galli, Flood, 250 g ai/ha; scale of 0 to 100 where 0 is no effect and 100 is complete control; read-out: Barnyardgrass plant response rating
How it was run: as §1

[5] = visual injury rating after approximately 10 d, read-out: Ragweed plant response rating (0 to 100 scale, 0 no effect, 100 complete control)

Row | SMILES | pest or weed control at 125 g/ha [1, 5] | pest or weed control at 250 g/ha (rice (Oryra sativa)) | pest or weed control at 250 g/ha [2] | pest or weed control at 250 g/ha [3] | pest or weed control at 250 g/ha [4] | pest or weed control at 125 g/ha ([1]; visual injury on 0 to 100 scale (0 no effect, 100 complete control), approx. 10 d, read-out: Ragweed plant response rating) | pest or weed control at 500 g/ha ([1]; 500 g ai/ha, visual injury, 0 to 100 scale (0 no effect, 100 complete control), approx. 10 d, read-out: Plant response rating, Ragweed)
1 | O=C1NC[C@H](c2ccc(F)c(OC(F)(F)C(F)(F)Br)c2)[C@H]1C(=O)Nc1cccc(F)c1F (racemic) [Compound 914] | 20% | 15% | 0% | 50% | 0% | – | –
2 | CN1C[C@H](c2cccc(C3CC3)c2)[C@@H](C(=O)Nc2ccccc2S(C)(=O)=O)C1=O [Compound 817] | 0% | 0% | 0% | 90% | 60% | – | –
3 | CN1C[C@H](c2cccc(C3CC3)c2)[C@@H](C(=O)Nc2ccc(F)cc2F)C1=O [Compound 818] | 0% | 0% | 0% | 80% | 55% | – | –
4 | CC(C)c1cccc([C@H]2CN(C)C(=O)[C@@H]2C(=O)Nc2ccccc2F)c1 [Compound 819] | 0% | 0% | 0% | 100% | 65% | – | –
5 | CN1C[C@H](c2cccc(F)c2)[C@@H](C(=O)Nc2ccccc2C(F)(F)F)C1=O [Compound 823] | 20% | 0% | 0% | 90% | 40% | – | –
6 | N#Cc1cccc(NC(=O)[C@H]2C(=O)NC[C@@H]2c2cccc(C(F)(F)F)c2)c1F [Compound 829] | 0% | 0% | 0% | 70% | 55% | – | –
7 | CS(=O)(=O)c1ccccc1NC(=O)[C@H]1C(=O)NC[C@@H]1c1cc(F)c(C(F)(F)F)c(F)c1 [Compound 839] | 60% | 0% | 0% | 70% | 0% | – | –
8 | COc1ccccc1NC(=O)[C@H]1C(=O)N(C)C[C@@H]1c1ccc(C(F)(F)F)cc1 [Compound 843] | 0% | 0% | 0% | 20% | 0% | – | –
9 | Cc1cc(F)cc([C@H]2CNC(=O)[C@@H]2C(=O)Nc2ccc(F)c(F)c2F)c1 [Compound 848] | 0% | 0% | 0% | 100% | 60% | – | –
10 | Cc1cc(F)cc([C@H]2CN(C)C(=O)[C@@H]2C(=O)Nc2cccc(F)c2F)c1 [Compound 849] | 0% | 15% | 0% | 100% | 75% | – | –
11 | Cc1cc(F)cc([C@H]2CN(C)C(=O)[C@@H]2C(=O)Nc2ccccc2F)c1 [Compound 850] | 0% | 0% | 0% | 90% | 70% | – | –
12 | COc1ccc([C@H]2CN(C)C(=O)[C@@H]2C(=O)Nc2ccccc2F)cc1OC [Compound 852] | 0% | 0% | 0% | 40% | 40% | – | –
13 | COc1ccc([C@H]2CN(C)C(=O)[C@@H]2C(=O)Nc2cccc(F)c2F)cc1OC [Compound 853] | 0% | 20% | 0% | 40% | 70% | – | –
14 | COc1ccc([C@H]2CN(C)C(=O)[C@@H]2C(=O)Nc2ccccc2SC)cc1OC [Compound 854] | 0% | 0% | 0% | 0% | 0% | – | –
15 | COc1cc([C@H]2CN(C)C(=O)[C@@H]2C(=O)Nc2cccc(F)c2F)cc(C(F)(F)F)c1 [Compound 856] | 0% | 0% | 0% | 75% | 50% | – | –
16 | COc1cc(C(F)(F)F)ccc1[C@H]1CN(C)C(=O)[C@@H]1C(=O)Nc1cccc(F)c1F [Compound 859] | 0% | 0% | 0% | 100% | 65% | – | –
17 | COc1cc(C(F)(F)F)ccc1[C@H]1CN(C)C(=O)[C@@H]1C(=O)Nc1ccccc1SC [Compound 860] | 0% | 0% | 0% | 90% | 0% | – | –
18 | CSc1ccccc1NC(=O)[C@H]1C(=O)NC[C@@H]1c1cccc2c1OC(F)(F)O2 [Compound 865] | 0% | 30% | 30% | 60% | 0% | – | –
19 | CSc1ccccc1NC(=O)[C@H]1C(=O)N(C)C[C@@H]1c1cc(F)c(F)c(F)c1 [Compound 866] | 0% | 35% | 35% | 90% | 35% | – | –
20 | CN1C[C@H](c2cc(F)cc(F)c2)[C@@H](C(=O)Nc2ccccc2[S@+](C)[O-])C1=O [Compound 871] | 0% | 0% | 0% | 0% | 0% | – | –
21 | Cc1c(F)cccc1NC(=O)[C@H]1C(=O)N(C)C[C@@H]1c1cccc(COC(F)F)c1 [Compound 874] | 20% | 0% | 0% | 100% | 65% | – | –
22 | CN1C[C@H](c2cccc(COC(F)F)c2)[C@@H](C(=O)Nc2ccccc2F)C1=O [Compound 875] | 20% | 0% | 0% | 100% | 70% | – | –
23 | CSc1ccccc1NC(=O)[C@H]1C(=O)N(C)C[C@@H]1c1cccc(COC(F)F)c1 [Compound 876] | 0% | 0% | 0% | 85% | 0% | – | –
24 | CN1C[C@H](c2cc(F)c(F)c(F)c2)[C@@H](C(=O)Nc2ccccc2F)C1=O [Compound 878] | 20% | 0% | 0% | 100% | 85% | – | –
25 | Cc1cc(C)cc([C@H]2CNC(=O)[C@@H]2C(=O)Nc2cccc(F)c2F)c1 [Compound 889] | 0% | 0% | 0% | 75% | 60% | – | –
26 | COc1c(F)ccc([C@H]2CNC(=O)[C@@H]2C(=O)Nc2ccc(F)c(F)c2F)c1Cl [Compound 890] | 0% | 0% | 0% | 90% | 60% | – | –
27 | COc1c(F)ccc([C@H]2CNC(=O)[C@@H]2C(=O)Nc2ccccc2C(F)(F)F)c1Cl [Compound 891] | 0% | 20% | 0% | 100% | 0% | – | –
28 | CN1C[C@H](c2cc(F)c(C(F)(F)F)c(F)c2)[C@@H](C(=O)Nc2ccccc2S(C)(=O)=O)C1=O [Compound 900] | 10% | 0% | 0% | 40% | 70% | – | –
29 | CN1C[C@H](c2cc(F)c(C(F)(F)F)c(F)c2)[C@@H](C(=O)Nc2ccc(F)cc2F)C1=O [Compound 901] | 0% | 0% | 0% | 60% | 60% | – | –
30 | CSc1ccccc1NC(=O)[C@H]1C(=O)NC[C@@H]1c1ccc(C)c(C)c1 [Compound 1036] | – | – | – | – | – | 0% | 10%
